The values that follow come from publication PMC11862924, “Phenylpyrazoles as Inhibitors of the m^6A RNA-Binding Protein YTHDF2” (JACS Au, 2025).

One may read the inhibition as the relative decrease from the control value, in per cent. A higher inhibition goes with a strong effect. For orientation: EC50 means the midpoint of the concentration-response curve.

The target in experiment [1] is T1, YTHDF2 (residues 383–553) (Homo sapiens, UniProt Q9Y5A9).
T1 construct: A YTHDF2 YTH domain construct (residues 383–553) was subcloned to a pOPIN plasmid; made in house; host or cells: Escherichia coli BL21(DE3)
T1 sequence (Q9Y5A9 383-553): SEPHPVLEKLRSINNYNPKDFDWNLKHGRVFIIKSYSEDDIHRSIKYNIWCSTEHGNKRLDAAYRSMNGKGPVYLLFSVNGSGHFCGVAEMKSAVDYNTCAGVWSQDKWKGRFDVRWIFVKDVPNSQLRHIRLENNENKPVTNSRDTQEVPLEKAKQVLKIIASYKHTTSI
As to the kind of experiment: Fluorescence polarization (FP) assay, YTHDF2–m6A RNA interaction. The format is binding. To be noted: 100 μM compound; YTHDF2 (residues 383–553, 20 nM), FAM-labeled m6A RNA probe 5 nM; average ± SD. On the procedure:
The FP assay was performed in 384-well black plates (Corning no. 4514) with a total reaction volume of 15 μL. The final concentrations of protein (YTHDF2) and RNA were […], respectively, in a buffer containing 20 mM HEPES/KOH pH 7.5, 50 mM NaCl, 0.005% Tween 20, and 1 mM GSH (DTT). Compounds were incubated with protein, added FAM-m^6A RNA probe ([…](m6)ACUGUG) (purchased from IDT), and incubated at 4 °C for 30 min. The fluorescence polarization was measured using a plate reader (TECAN Spark) under an excitation wavelength of 485 nm and an emission wavelength of 535 nm with a bandwidth of 20 nm. […] The data were determined using GraphPad Prism 9.
On the technique in general: In fluorescence polarisation assays a small probe gives low polarisation when free and higher when bound to something large.

In another experiment the test system is JAR. Description: CCK-8 proliferation assay, JAR. The format is cell-based. To be noted: Homo sapiens; CCK-8 kit assay, triplicates, 72 h; read-out: Anti-proliferation activity against cancer cells (IC50), JAR. As to the method: (§1) The JAR, K562, HCT116, and MOLM13 cells were seeded in 96-well plates (3000 cells/well). After being cultured overnight, compounds were added together with the DMSO treatment (0.1%) as a control. After 72 h, CCK-8 solution (Vazyme, A311) was added, and the cells were incubated at 37 °C for 4 h. The absorbance was measured at 450 nm using a plate reader (TECAN Spark).

A further experiment relates to K562. As to the kind of experiment: CCK-8 proliferation assay, K562. The format is cell-based. To be noted: Homo sapiens, CCK-8 kit assay, triplicates, 72 h, read-out: Anti-proliferation activity against cancer cells (IC50), K562. On the procedure:
as §1
(Tetrazolium assays rely on reduction of a dye to a coloured formazan, in cell work by metabolically active cells.)

Experiment [2] addresses T2, YTHDF2 (Homo sapiens, UniProt Q9Y5A9).
T2 construct: A YTHDF2 YTH domain construct (residues 383–553) was subcloned to a pOPIN plasmid; made in house; host or cells: Escherichia coli BL21(DE3)
T2 sequence (Q9Y5A9 383-553): T1 sequence (Q9Y5A9 383-553)
The arrangement: method as in PMID 37236197. To be noted: read-out: IC50, YTHDF2, AlphaScreen; cited from earlier work.

The subject of another experiment is HCT116. As to the kind of experiment: CCK-8 proliferation assay, HCT116. The format is cell-based. The following applies: Homo sapiens, HCT-116; CCK-8 kit assay, triplicates, 72 h; read-out: Anti-proliferation activity against cancer cells (IC50), HCT116. On the procedure: as §1
Another experiment addresses T3, YTHDF1 (Homo sapiens, UniProt Q9BYJ9).
T3 construct: Plasmids of the YTH domain of YTHDF1 (residues 375–552); made in house; host or cells: Escherichia coli BL21(DE3); plasmid from the Zhou lab (Boston College)
T3 sequence (Q9BYJ9 375-552): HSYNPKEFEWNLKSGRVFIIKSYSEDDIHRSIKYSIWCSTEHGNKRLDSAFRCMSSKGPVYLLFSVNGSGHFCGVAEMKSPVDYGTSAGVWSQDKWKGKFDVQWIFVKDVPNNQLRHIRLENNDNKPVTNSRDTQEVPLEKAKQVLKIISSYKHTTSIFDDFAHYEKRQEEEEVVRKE
The arrangement: method as in PMID 36268123. To be noted: read-out: EC50, YTHDF1, tryptophan quenching assay; cited from earlier work.

In experiment [3] the target is T2, YTHDF2. Further details: method as in PMID 36268123. To be noted: read-out: EC50, YTHDF2, tryptophan quenching assay; cited from earlier work.
For the next experiment, the system named is METTL3. Further details: method as in PMID 33902106. The following applies: cited from earlier work.

Compound `N#C/C(=C\c1ccc(-c2cccc(O)c2)s1)C(N)=O` [DC-Y13–27, reference compound] returned an inhibition at 100 µM in experiment [1] of 14.2%. Besides, the IC50 with JAR was 33.3 ± 5.6 µM; in the experiment on K562 it was 24.5 ± 3.7 µM; on YTHDF2 [2], 21.8 µM; in the experiment on HCT116 it was 5.8 ± 0.9 µM.
For the compound `O=c1c2ccccc2[se]n1-c1ccccc1` [Ebselen], the EC50 at YTHDF1 is 1.6 µM; on YTHDF2 [3] it was 1.7 µM.
As to `O=C(NCc1ccc2cc(CNCC3CCC3)[nH]c2c1)c1cc(=O)n2ccccc2n1` [STC-15], the “inhibitory activity against METTL3 (in words)” value in the experiment on METTL3 is given as “nanomolar inhibitory activity”.
For the compound STM2457, the “inhibitory activity against METTL3 (in words)” value in the experiment on METTL3 was “nanomolar inhibitory activity”.
